Patent publication US10935498B1, “Fluorescent probe for detecting nitroreductase and preparation method and use thereof in enzymatic reaction” (SOUTH CHINA UNIVERSITY OF TECHNOLOGY, priority 2018, dated 2021)

Columns and labels:
nitroreductase = assay: Fluorescent response of the probe to nitroreductase (NTR) in PBS buffer; format: biochemical; details: probe 10 μM, excitation 500 nm
Description: 1.5 mg of the solid fluorescent compound, 3-(4-(2-(4′-(diphenylamino)-3-((4-nitrobenzyl)oxy)-[1,1′-biphenyl]-4-yl)vinyl)quinolin-1-ium-1-yl)propane-1-sulfonate (TAE-NQS, prepared in Example 1), was dissolved in 2 mL of DMSO, and prepared into a 1 mM stock solution of the fluorescent compound. Before the test, of the fluorescent compound was diluted with a phosphate buffer (10 mM, pH 7.4), and a solution system to be tested containing 1% DMSO was obtained (final concentration of the probe was 10 μM).
3 μL of the above-mentioned stock solution of the fluorescent compound was drawn, and a blank control sample and test samples were prepared with PBS buffer solution (10 mM, pH=7.4). […] The samples were incubated at 37° C. for 15 minutes, then the absorption spectra ranging from 350 nm to 700 nm were recorded, and the fluorescence spectra were measured under the excitation light of 500 nm. […]
When the concentration of NTR was 2 μg/mL and the concentration of the probe was 10 μM, the fluorescence intensity varied over time, shown as FIG. 7. […] By controlling the temperature to be 37° C. and the incubation time to be 5 minutes, the fluorescence spectra under the excitation wavelength of 500 nm for each test sample were recorded. […]

[1] = Solubility (stated property); format: physicochemical
[2] = Photostability (stated property); format: physicochemical
[3] = Toxicity (stated property)

O=[N+]([O-])c1ccc(COc2cc(-c3ccc(N(c4ccccc4)c4ccccc4)cc3)ccc2C=Cc2cc[n+](CCCS(=O)(=O)[O-])c3ccccc23)cc1 [TAE-NQS, 3-(4-(2-(4′-(diphenylamino)-3-((4-nitrobenzyl)oxy)-[1,1′-biphenyl]-4-yl)vinyl)quinolin-1-ium-1-yl)propane-1-sulfonate]
time in which the enzymatic reaction was completed (nitroreductase; NTR 0 μg/mL to 5 μg/mL, PBS pH 7.4, 37° C.): ≤ 30 min
fluorescence intensity compared with the blank sample (nitroreductase; nitroreductase 2 μg/mL, NADH 100 μM, PBS 10 mM pH 7.4, 37° C., 15 minutes): changed significantly
solubility in solvents such as DMSO and DMF ([1]; DMSO, DMF): easily soluble
solubility in water ([1]; water): slightly soluble
photostability [2]: good
toxicity [3]: non-toxic
